Data published in patent publication EP1149104B1, “PYRROLOBENZODIAZEPINE CARBOXYAMIDE VASOPRESSIN AGONISTS” (Wyeth, priority 1999, dated 2000).

Test system: vasopressin V2 receptors
Test: Vasopressin V2 agonist effects in normal conscious water-loaded rats
Format: in vivo
Details: oral dose of 10 mg/Kg, urine collected for four hours, Sprague-Dawley (CD) rats; for Changes in Urinary Osmolality: osmolality changes expressed as percent of control; for Urine Volume (% decrease): percent decrease in urine volume vs. control
Description: Vasopressin V2 Agonist Effects of Test Compounds in Normal Conscious Water-Loaded Rats:
Male or female normotensive Sprague-Dawley rats (Charles River Laboratories, Inc., Kingston, NY) of 350-500 g body weight were supplied with standard rodent diet (Purina Rodent Lab. Chow 5001) and water ad libitum. On the day of test, rats were placed individually into metabolic cages equipped with devices to separate the feces from the urine and containers for collection of urine. A test compound or a reference agent was given at an oral dose of 10 mg/Kg in a volume of 10 mL/Kg. The vehicle used was 20% dimethylsulfoxide (DMSO) in 2.5% preboiled corn starch. Thirty minutes after dosing the test compound, rats were gavaged with water at 30 mL/Kg into the stomach using a feeding needle. During the test, rats were not provided with water or food. Urine was collected for four hours after dosing of the test compound. At the end of four hours, urine volume was measured. Urinary osmolality was determined using a Fiske One-Ten Osmometer (Fiske Associates, Norwood, MA, 02062) or an Advanced CRYOMATIC Osmometer, Model 3C2 (Advanced Instruments, Norwood, MA). Determinations of Na^+, K^+- and Cl^- ion were carried out using ion specific electrodes in a Beckman SYNCHRON EL-ISE Electrolyte System analyzer. The urinary osmolality should increase proportionally. In the screening test, two rats were used for each compound. If the difference in the urine volume of the two rats was greater than 50%, a third rat was used.

Compound | Changes in Urinary Osmolality | Urine Volume (% decrease)
Cn1ccc2cc(C(=O)N3Cc4cccn4Cc4ccccc43)ccc21 [Example 1, (5H-10,11-Dihydro-pyrrolo [2,1-c][1,4]benzodiazepin-10-yl)-(1-methyl-1H-indol-5-yl)-methanone] | 174% of control | 66
O=C(c1ccc2c(c1)OCO2)N1Cc2cccn2Cc2ccccc21 [Example 2, Benzo[1,3]dioxol-5-yl-(5H-10,11-dihydro-pyrrolo [2,1-c][1-4]benzodiazepin-10-yl)-methanone] | 41% of control | 23
O=C(c1ccc2c(c1)CCO2)N1Cc2cccn2Cc2ccccc21 [Example 3, (2,3-Dihydro-benzofuran-5-yl)-(5H-10,11-dihydro-pyrrolo[2,1-c][1,4]benzodiazepin-10-yl)-methanone] | 10% of control | 32
O=C(c1ccc2ncsc2c1)N1Cc2cccn2Cc2ccccc21 [Example 4, (Benzothiazol-6-yl)-(5H-10,11-dihydro-pyrrolo[2,1-c][1,4]benzodiazepin-10-yl)-methanone] | 3% of control | 19
